Test results published in article PMC2964380 (Bioorganic & medicinal chemistry, 2010).
Where two headings read alike, the source gives them in different places.

Experiments:
HIV-1 (IIIB) [1] = settings: MT-2 cell culture, MTT assay; cited from earlier work
HIV-1 (IIIB) [2] = experiment: Inhibition of HIV-1; format: cell-based; settings: Human immunodeficiency virus 1, IIIB, MT2, 120 h, read-out: Cell-Culture EC50

Row | Structure (SMILES) | EC50 (HIV-1 (IIIB) [1]) [nM] | EC50 (HIV-1 (IIIB) [2]) [nM]
1 | Cc1cn([C@H]2C=C[C@@H](CO)O2)c(=O)[nH]c1=O [d4T] | 2000 | –
2 | COc1ccc(OC)c(CCNC(=S)Nc2ccc(Br)cn2)c1 [HI-236] | – | 42
